# Where a name gives a salt, the structure may show the parent alone.
# Biological target: T1, human liver glycogen phosphorylase (Homo sapiens, UniProt P06737)
# T1 construct: made in house; host or cells: Sf9 insect cells (suspension of disrupted cells, diluted in BES buffer, not purified)
# T1 sequence (P06737 1-847): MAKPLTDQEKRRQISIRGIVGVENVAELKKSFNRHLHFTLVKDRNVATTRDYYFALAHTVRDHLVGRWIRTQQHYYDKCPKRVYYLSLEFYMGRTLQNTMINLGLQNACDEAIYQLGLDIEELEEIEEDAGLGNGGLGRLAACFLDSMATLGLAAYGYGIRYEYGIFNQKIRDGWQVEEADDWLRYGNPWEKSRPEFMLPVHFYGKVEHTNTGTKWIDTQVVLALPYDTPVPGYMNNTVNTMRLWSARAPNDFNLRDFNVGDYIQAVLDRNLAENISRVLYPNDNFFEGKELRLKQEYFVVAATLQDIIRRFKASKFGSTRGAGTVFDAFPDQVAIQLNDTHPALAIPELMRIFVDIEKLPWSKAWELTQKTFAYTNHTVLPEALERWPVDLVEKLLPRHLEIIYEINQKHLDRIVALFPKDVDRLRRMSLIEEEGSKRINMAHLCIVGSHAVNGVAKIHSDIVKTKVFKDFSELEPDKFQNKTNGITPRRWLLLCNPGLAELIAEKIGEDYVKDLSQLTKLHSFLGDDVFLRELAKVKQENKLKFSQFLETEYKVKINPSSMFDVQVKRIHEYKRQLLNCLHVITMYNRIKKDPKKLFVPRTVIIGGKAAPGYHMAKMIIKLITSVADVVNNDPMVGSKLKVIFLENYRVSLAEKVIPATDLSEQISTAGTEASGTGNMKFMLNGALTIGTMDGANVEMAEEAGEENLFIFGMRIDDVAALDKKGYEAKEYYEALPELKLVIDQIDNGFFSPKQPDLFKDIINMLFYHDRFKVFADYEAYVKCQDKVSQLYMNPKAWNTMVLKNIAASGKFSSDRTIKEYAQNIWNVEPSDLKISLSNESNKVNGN
# Assay: Liver glycogen phosphorylase activity, forward reaction system (NADPH detection at 340 nm)
# Type: biochemical
# Conditions: enzyme inhibitory activity against recombinant human liver glycogen phosphorylase (Sf9 cell lysate), room temperature, 75 minutes
# Summary of the method: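 Recombinant human liver glycogen phosphorylase from Sf9 lysate, run in forward direction with glycogen and phosphate substrate plus glucose, coupled via phosphoglucomutase/G6PDH to NADPH formation. BES buffer pH 6.8, room temperature, 75 min; A340 change minus blank gives activity. IC50 from percent inhibition vs DMSO control.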
row,SMILES,IC50 [nM]
1,"CCN(CC)C(=O)COCc1nc(C)c(CNC(=O)c2cc(NC(=O)c3cc(F)c(F)cc3Cl)[nH]n2)o1 [Example 3-8, 5-(2-chloro-4,5-difluoro-benzoylamino)-1H-pyrazole-3-carboxylic acid (2-diethylcarbamoyl methoxymethyl-4-methyl-oxazol-5-ylmethyl)-amide]",< 100
2,"Cc1nc(COCC(=O)NCc2ccccc2)oc1CNC(=O)c1cc(NC(=O)c2cc(F)c(F)cc2Cl)[nH]n1 [Example 3-9, 5-(2-chloro-4,5-difluoro-benzoylamino)-1H-pyrazole-3-carboxylic acid [2-(benzylcarbamoyl-methoxymethyl)-4-methyl-oxazol-5-ylmethyl]-amide]",< 100
3,"Cc1nc(COCC(=O)N2CCOCC2)oc1CNC(=O)c1cc(NC(=O)c2cc(F)c(F)cc2Cl)[nH]n1 [Example 3-10, 5-(2-chloro-4,5-difluoro-benzoylamino)-1H-pyrazole-3-carboxylic acid [4-methyl-2-(2-morpholin-4-yl-2-oxo-ethoxymethyl)-oxazol-5-ylmethyl]-amide]",< 100
4,"Cc1ccc(S(=O)(=O)NCc2nc(C)c(CNC(=O)c3cc(NC(=O)c4cc(F)c(F)cc4Cl)[nH]n3)o2)cc1 [Example 3-11, 5-(2-chloro-4,5-difluoro-benzoylamino)-1H-pyrazole-3-carboxylic acid {4-methyl-2-[(toluene-4-sulfonylamino)-methyl]-oxazol-5-ylmethyl}-amide]",< 100
5,"Cc1nc(CNC(=O)c2ccc(Cl)cc2)oc1CNC(=O)c1cc(NC(=O)c2cc(F)c(F)cc2Cl)[nH]n1 [Example 3-13, 5-(2-chloro-4,5-difluoro-benzoylamino)-1H-pyrazole-3-carboxylic acid {2-[(4-chloro-benzoylamino)-methyl]-4-methyl-oxazol-5-ylmethyl}-amide]",< 100
6,"O=C(O)Cc1nnc(CNC(=O)c2cc(NC(=O)c3cc(F)c(F)cc3Cl)[nH]n2)o1 [Example 3-19, 5-(2-chloro-4,5-difluoro-benzoylamino)-1H-pyrazole-3-carboxylic acid (5-carboxymethyl-[1,3,4]oxadiazol-2-ylmethyl)-amide]",100 to 300
7,"NC(=O)Cc1nnc(CNC(=O)c2cc(NC(=O)c3cc(F)c(F)cc3Cl)[nH]n2)o1 [Example 3-20, 5-(2-chloro-4,5-difluoro-benzoylamino)-1H-pyrazole-3-carboxylic acid (5-carbamoylmethyl-[1,3,4]oxadiazol-2-ylmethyl)-amide]",100 to 300
8,"Cc1nc(COC(=O)c2cccs2)c(CNC(=O)c2cc(NC(=O)c3cc(F)c(F)cc3Cl)[nH]n2)o1 [Example 3-22, 5-(2-chloro-4,5-difluoro-benzoylamino)-1H-pyrazole-3-carboxylic acid [2-methyl-4-(thiophene-2-carbonyloxymethyl)-oxazol-5-ylmethyl]-amide]",< 100
9,"Cc1nc(COC(=O)C2CCCCC2)c(CNC(=O)c2cc(NC(=O)c3cc(F)c(F)cc3Cl)[nH]n2)o1 [Example 3-23, 5-(2-chloro-4,5-difluoro-benzoylamino)-1H-pyrazole-3-carboxylic acid (4-cyclohexanecarbonyloxymethyl-2-methyl-oxazol-5-ylmethyl)-amide]",< 100
10,"Cc1nc(C(=O)N(C)Cc2ccccc2)oc1CNC(=O)c1cc(NC(=O)c2cc(F)c(F)cc2Cl)[nH]n1 [Example 3-25, 5-({[5-(2-chloro-4,5-difluoro-benzoylamino)-1H-pyrazole-3-carbonyl]-amino}-methyl)-4-methyl-oxazole-2-carboxylic acid benzyl-methyl-amide]",< 100

# Next, values leading:
row,IC50 [nM],SMILES
1,< 100,"CC(=O)NCc1nc(C)c(CNC(=O)c2cc(NC(=O)c3cc(F)c(F)cc3Cl)[nH]n2)o1 [Example 3-12, 5-(2-chloro-4,5-difluoro-benzoylamino)-1H-pyrazole-3-carboxylic acid [2-(acetylamino-methyl)-4-methyl-oxazol-5-ylmethyl]-amide dihydrochloride]"
2,< 100,"Cc1nc(C(=O)O)oc1CNC(=O)c1cc(NC(=O)c2cc(F)c(F)cc2Cl)[nH]n1 [Example 3-14, sodium 5-({[5-(2-chloro-4,5-difluoro-benzoylamino)-1H-pyrazole-3-carbonyl]-amino}-methyl)-4-methyl-oxazole-2-carboxylate]"
3,< 100,"Cc1nc(C(=O)N2CCCCC2)oc1CNC(=O)c1cc(NC(=O)c2cc(F)c(F)cc2Cl)[nH]n1 [Example 3-15, 5-(2-chloro-4,5-difluoro-benzoylamino)-1H-pyrazole-3-carboxylic acid [4-methyl-2-(piperidine-1-carbonyl)-oxazol-5-ylmethyl]-amide]"
4,< 100,"Cc1nc(C(=O)NCc2ccccc2)oc1CNC(=O)c1cc(NC(=O)c2cc(F)c(F)cc2Cl)[nH]n1 [Example 3-16, 5-(2-chloro-4,5-difluoro-benzoylamino)-1H-pyrazole-3-carboxylic acid (2-benzylcarbamoyl-4-methyl-oxazol-5-ylmethyl)-amide]"
5,< 100,"Cc1nc(C(=O)OCc2ccccc2)oc1CNC(=O)c1cc(NC(=O)c2cc(F)c(F)cc2Cl)[nH]n1 [Example 3-17, 5-(2-chloro-4,5-difluoro-benzoylamino)-1H-pyrazole-3-carboxylic acid (2-benzyloxycarbonyl-4-methyl-oxazol-5-ylmethyl)-amide]"
6,< 100,"Cc1nc(CNC(=O)c2cc(NC(=O)c3cc(F)c(F)cc3Cl)[nH]n2)oc1C(=O)O [Example 3-18, 5-(2-chloro-4,5-difluoro-benzoylamino)-1H-pyrazole-3-carboxylic acid (5-carboxy-4-methyl-oxazol-2-ylmethyl)-amide]"
7,< 100,"Cc1nc(CO)oc1CNC(=O)c1cc(NC(=O)c2cc(F)c(F)cc2Cl)[nH]n1 [Example 3-24, 5-(2-chloro-4,5-difluoro-benzoylamino)-1H-pyrazole-3-carboxylic acid (2-hydroxymethyl-4-methyl-oxazol-5-ylmethyl)-amide hydrochloride]"
